Converted amounts (≈) assume the structure as drawn. Numbered stars: 1 amine (or outer) side, 2 acyl side, 3 side chain; on linkers, the order of the positions; unused ones are H or OH. Bridge positions count the residues as written; N and C are the ends. Square brackets hold non-standard residues; d marks the D form. Peptide text beside a SMILES is read from it. * marks the point of attachment. pTerphenylCO(4''-OnC5H11) = CCCCCOc1ccc(-c2ccc(-c3ccc(C(=O)*)cc3)cc2)cc1; Orn(4R-OH,5R-OH) = O=C([C@H](C[C@@H](O)[C@@H](O)N[*:3])N[*:1])[*:2]; hTyr(3S-OH,4S-OH) = N[C@H](C(=O)O)[C@H](O)[C@@H](O)c1ccc(O)cc1; Pro(3S-OH,4S-Me) = C[C@H]1CN[C@H](C(=O)O)[C@H]1O; Hyp = O=C(O)[C@@H]1C[C@@H](O)CN1
Columns and labels:
Candida tropicalis [1] = assay: Antifungal activity against Candida tropicalis K337 by agar incorporation method; type: functional
Candida tropicalis [2] = assay: Antifungal activity against Candida tropicalis K1155 by agar incorporation method; type: functional
Candida albicans [3] = assay: Antifungal activity against Candida albicans K341 by agar incorporation method; type: functional
Candida albicans [4] = assay: Antifungal activity against Candida albicans K1082 by agar incorporation method; type: functional
[5] = Inhibition of Beta-1,3-glucan synthase in wild type Schizosaccharomyces pombe
Pichia kudriavzevii [6] = assay: Antifungal activity against Candida krusei K1153 by agar incorporation method; type: functional
Candida albicans [7] = assay: Antifungal activity against Candida albicans K1133 by agar incorporation method; type: functional
[8] = Inhibition of Beta-1,3-glucan synthase in Schizosaccharomyces pombe pbr1-6
[9] = test system: Meyerozyma guilliermondii; assay: Antifungal activity against Candida guilliermondii K334 by agar incorporation method; type: functional
Cyberlindnera jadinii = assay: Antifungal activity against Candida utilis K482 by agar incorporation method; type: functional; settings: Williopsis jadinii
Candida parapsilosis [10] = assay: Antifungal activity against Candida parapsilosis K1154 by agar incorporation method; type: functional; settings: Lodderomyces parapsilosis
Candida albicans [11] = assay: Antifungal activity against Candida albicans K335 by agar incorporation method; type: functional
Candida parapsilosis [12] = assay: Antifungal activity against Candida parapsilosis K332 by agar incorporation method; type: functional; settings: Lodderomyces parapsilosis
[13] = Inhibition of Beta-1,3-glucan synthase in Schizosaccharomyces pombe pbr1-8
Nakaseomyces glabratus = assay: Antifungal activity against Candida glabrata DSM 11226 by CLSI-based serial dilution method; type: functional
Pichia kudriavzevii [14] = assay: Antifungal activity against Candida krusei DSM 6128 by CLSI-based serial dilution method; type: functional
[15] = Antifungal activity against Candida arborea KKP319 by CLSI-based serial dilution method; type: functional
Candida albicans [16] = assay: Antifungal activity against Candida albicans ATCC 10231 by CLSI-based serial dilution method; type: functional
Candida albicans [17] = assay: Antifungal activity against Candida albicans Ca1055 by CLSI method; type: functional
Candida albicans [18] = assay: Antifungal activity against Candida albicans Ca2323/ORF6.945 by CLSI method; type: functional
Candida parapsilosis [19] = assay: Antifungal activity against Candida parapsilosis ATCC22019 by CLSI method; type: functional; settings: Lodderomyces parapsilosis
Aspergillus fumigatus [20] = assay: Antifungal activity against Aspergillus fumigatus MF5668 by CLSI method; type: functional
[21] = Half life in Beagle dog at 1.4 mg/kg, iv measured up to 72 hrs by LC-MS/MS analysis; type: ADME, organism-based, Canis lupus familiaris; settings: in vivo
[22] = Half life in human at 50 mg by liquid chromatography-tandem mass spectrometry method; type: ADME; settings: in vivo
Aspergillus fumigatus [23] = assay: Antifungal activity against Aspergillus fumigatus clinical isolate 293 infected in Hartley guinea pig model of invasive pulmonary aspergillosis assessed as percent survival of pig at 10 mg/kg, sc administered until day 8 starting from day 1 post infection; type: functional; settings: Af293, sc, 192 h, time 8 day
Aspergillus fumigatus [24] = assay: Antifungal activity against Aspergillus fumigatus clinical isolate 293 infected in Hartley guinea pig model of invasive pulmonary aspergillosis assessed as pig median survival time at 10 mg/kg, sc administered until day 8 starting from day 1 post infection; type: functional, Af293; settings: time 8 day
Endochitinase A1 = Endochitinase A1 (Aspergillus fumigatus, UniProt Q873Y0); assay: Inhibition of Aspergillus fumigatus chiA1 (Arg28 to His337) expressed in Pichia pastoris incubated for 70 mins using 4MU-NAc3 as substrate by fluorescence method
[25] = Inhibition of Saccharomyces cerevisiae CTS1 incubated for 70 mins by fluorescence method
Chitotriosidase-1 = Chitotriosidase-1 (Homo sapiens, UniProt Q13231); assay: Inhibition of human chitinase1 incubated for 70 mins using 4MU-NAG2 as substrate by fluorescence method
Candida parapsilosis [26] = assay: Antifungal activity against Candida parakrusei FP586 by agar dilution method; type: functional; settings: Lodderomyces parapsilosis
Candida tropicalis [27] = assay: Antifungal activity against Candida tropicalis FP583 by agar dilution method; type: functional
Candida albicans [28] = assay: Antifungal activity against Candida albicans FP616 by agar dilution method; type: functional
Candida albicans [29] = assay: Antifungal activity against Candida albicans FP622 by agar dilution method; type: functional
Candida albicans [30] = assay: Antifungal activity against Candida albicans FP614 by agar dilution method; type: functional
Candida albicans [31] = assay: Antifungal activity against Candida albicans FP615 by agar dilution method; type: functional
Pichia kudriavzevii [32] = assay: Antifungal activity against Candida krusei FP585 by agar dilution method; type: functional
[33] = Inhibition of Candida albicans glucosamine-6-phosphate synthase by Elson-Morgan method
Candida albicans [34] = assay: Antifungal activity against Candida albicans ATCC 10261 incubated for 24 hrs by serial dilution method; type: functional
Candida albicans [35] = assay: Antifungal activity against Candida albicans ATCC 26278 incubated for 24 hrs by serial dilution method; type: functional
Candida albicans [36] = assay: Antifungal activity against Candida albicans CY1002 infected in iv dosed ICR mouse administered as single dose measured on day 7; type: functional; settings: 168 h, time 7 day
[37] = Elimination half life life in iv dosed human; settings: in vivo
[38] = Inhibition of Candida albicans GFA1 using D-Fru6P and L-glutamine as substrate incubated for 30 mins by Elson-Morgan method

Chain of Chitotriosidase-1 (Q13231 whole entry): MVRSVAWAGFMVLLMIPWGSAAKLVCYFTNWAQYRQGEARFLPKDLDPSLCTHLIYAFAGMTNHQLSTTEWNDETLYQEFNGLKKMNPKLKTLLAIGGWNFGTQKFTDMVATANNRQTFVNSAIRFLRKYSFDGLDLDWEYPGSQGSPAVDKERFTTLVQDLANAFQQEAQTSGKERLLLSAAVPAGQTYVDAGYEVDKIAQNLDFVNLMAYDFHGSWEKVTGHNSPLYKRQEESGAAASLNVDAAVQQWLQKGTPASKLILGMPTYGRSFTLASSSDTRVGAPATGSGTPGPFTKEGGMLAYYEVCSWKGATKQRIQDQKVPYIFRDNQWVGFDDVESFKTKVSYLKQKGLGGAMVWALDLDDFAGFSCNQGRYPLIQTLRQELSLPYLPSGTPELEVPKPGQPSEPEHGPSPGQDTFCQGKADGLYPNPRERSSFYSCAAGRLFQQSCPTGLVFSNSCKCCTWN
Chain of Endochitinase A1 (Q873Y0 whole entry): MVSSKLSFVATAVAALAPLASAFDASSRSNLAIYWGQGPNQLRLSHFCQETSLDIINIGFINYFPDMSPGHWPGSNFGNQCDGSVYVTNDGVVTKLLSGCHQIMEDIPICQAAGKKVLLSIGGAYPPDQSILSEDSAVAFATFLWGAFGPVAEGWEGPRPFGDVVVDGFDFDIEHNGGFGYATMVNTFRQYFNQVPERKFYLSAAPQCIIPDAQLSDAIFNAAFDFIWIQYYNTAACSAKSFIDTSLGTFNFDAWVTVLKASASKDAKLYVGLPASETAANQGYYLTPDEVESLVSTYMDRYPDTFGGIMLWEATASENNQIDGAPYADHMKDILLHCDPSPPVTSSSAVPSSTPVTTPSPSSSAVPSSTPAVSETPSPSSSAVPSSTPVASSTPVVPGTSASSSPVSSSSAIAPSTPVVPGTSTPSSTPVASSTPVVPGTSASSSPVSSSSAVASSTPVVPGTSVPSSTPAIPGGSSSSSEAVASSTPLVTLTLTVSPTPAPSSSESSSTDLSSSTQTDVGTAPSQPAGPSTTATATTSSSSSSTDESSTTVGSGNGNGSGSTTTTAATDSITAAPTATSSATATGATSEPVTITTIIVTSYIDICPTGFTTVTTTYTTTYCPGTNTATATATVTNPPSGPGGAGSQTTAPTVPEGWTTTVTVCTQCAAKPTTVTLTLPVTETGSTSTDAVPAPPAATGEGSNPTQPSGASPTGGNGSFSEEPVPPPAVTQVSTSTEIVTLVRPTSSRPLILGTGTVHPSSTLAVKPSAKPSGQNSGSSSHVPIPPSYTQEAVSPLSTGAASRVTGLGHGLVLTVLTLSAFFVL

CCC(O)/C=C/C=C\C=C\C(=O)OC[C@H]1O[C@@H](O[C@H]2[C@H](OC(=O)/C=C/C=C/C[C@H](O)/C(C)=C/C=C/CC[C@@H](C)CC)[C@@H](O)[C@@]3(OCc4cc(O)cc(O)c43)O[C@@H]2CO)[C@H](O)[C@@H](O)[C@H]1O (some centres not stated)
MIC (Candida tropicalis [1]): 0.1 µg/mL (≈ 0.111 µM) | MIC (Candida tropicalis [2]): 0.1 µg/mL (≈ 0.111 µM) | MIC (Candida albicans [3]): 0.1 µg/mL (≈ 0.111 µM) | MIC (Candida albicans [4]): 0.1 µg/mL (≈ 0.111 µM) | IC50 [5]: 0.02 µg/mL (≈ 0.0222 µM) | MIC (Pichia kudriavzevii [6]): 0.1 µg/mL (≈ 0.111 µM) | MIC (Candida albicans [7]): 0.1 µg/mL (≈ 0.111 µM) | IC50 [8]: > 250 µg/mL | MIC [9]: 0.1 µg/mL (≈ 0.111 µM) | MIC (Cyberlindnera jadinii): 0.1 µg/mL (≈ 0.111 µM) | MIC (Candida parapsilosis [10]): 0.1 µg/mL (≈ 0.111 µM) | MIC (Candida albicans [11]): 0.1 µg/mL (≈ 0.111 µM) | MIC (Candida parapsilosis [12]): 0.1 µg/mL (≈ 0.111 µM) | IC50 [13]: > 250 µg/mL

COS(=O)(=O)C[C@H]1OC(O)[C@H](N)[C@@H](O)[C@@H]1O (some centres not stated)
MIC (Nakaseomyces glabratus): > 4000 µg/mL | MIC (Pichia kudriavzevii [14]): > 4000 µg/mL | MIC [15]: > 4000 µg/mL | MIC (Candida albicans [16]): > 4000 µg/mL

Nc1ccccc1C(=O)OCC#CCOC(=O)c1ccccc1N
MIC (Candida albicans [17]): 4 µg/mL (≈ 12.3 µM) | MIC (Candida albicans [18]): 4 µg/mL (≈ 12.3 µM) | MIC (Candida parapsilosis [19]): 2 µg/mL (≈ 6.17 µM) | MIC (Aspergillus fumigatus [20]): 4 µg/mL (≈ 12.3 µM)

CC(=O)[O-].CCCCCOc1ccc(-c2ccc(-c3ccc(C(=O)N[C@H]4C[C@@H](O)[C@@H](NCC[N+](C)(C)C)NC(=O)[C@@H]5[C@@H](O)[C@@H](C)CN5C(=O)[C@H]([C@@H](C)O)NC(=O)[C@H]([C@H](O)[C@@H](O)c5ccc(O)cc5)NC(=O)[C@@H]5C[C@@H](O)CN5C(=O)[C@H]([C@@H](C)O)NC4=O)cc3)cc2)cc1
half-life [21]: 53.1 h | half-life [22]: > 130 h

COS(=O)(=O)C[C@H]1OC(O)[C@H](NC(C)=O)[C@@H](O)[C@@H]1O (some centres not stated)
MIC (Nakaseomyces glabratus): > 4000 µg/mL | MIC (Pichia kudriavzevii [14]): > 4000 µg/mL | MIC [15]: > 4000 µg/mL | MIC (Candida albicans [16]): > 4000 µg/mL

COc1cc(C[C@@H](O)[C@@H]2NC(=O)[C@@H]3C[C@@H](O)CN3C(=O)[C@H]([C@@H](C)O)NC(=O)[C@H](NC[C@H]3CC[C@H](c4nnc(-c5ccc(N6CCC(OC)(C7CCCCC7)CC6)cc5)s4)CC3)C[C@@H](O)CNC(=O)[C@@H]3[C@@H](O)[C@@H](C)CN3C(=O)[C@H]([C@H](O)CCNC(CO)CO)NC2=O)ccc1O
survival at 10 mg/kg (Aspergillus fumigatus [23]): 31.2% | Time (Aspergillus fumigatus [24]): 9.5 days

COc1ccccc1-c1noc2nc(C)[nH]c(=O)c12
IC50 (Endochitinase A1): 2.6 µM | IC50 [25]: 0.5 µM | IC50 (Chitotriosidase-1): > 100 µM

CCC/C=C/C=C/[C@@H](O)C/C=C/C=C/C(=O)O[C@H]1[C@H](O[C@@H]2O[C@H](COC(=O)/C=C/C=C\CCCCC)[C@H](O)[C@H](O)[C@H]2O)[C@@H](CO)O[C@]2(OCc3cc(O)cc(O)c32)[C@@H]1O
MIC (Candida parapsilosis [26]): 0.1 µg/mL (≈ 0.12 µM) | MIC (Candida tropicalis [27]): 0.1 µg/mL (≈ 0.12 µM) | MIC (Candida albicans [28]): 0.1 µg/mL (≈ 0.12 µM) | MIC (Candida albicans [29]): 0.1 µg/mL (≈ 0.12 µM) | MIC (Candida albicans [30]): 0.1 µg/mL (≈ 0.12 µM) | MIC (Candida albicans [31]): 0.1 µg/mL (≈ 0.12 µM) | MIC (Pichia kudriavzevii [32]): 0.1 µg/mL (≈ 0.12 µM)

N[C@@H](CO)[C@@H](O)[C@H](O)[C@H](O)COP(=O)(O)O
IC50 [33]: 230 µM | MIC (Candida albicans [34]): 5000 µg/mL (≈ 19100 µM) | MIC (Candida albicans [35]): 5000 µg/mL (≈ 19100 µM)

CCCCCOc1ccc(-c2ccc(-c3ccc(C(=O)N[C@H]4C[C@@H](O)[C@@H](O)NC(=O)[C@@H]5[C@@H](O)[C@@H](C)CN5C(=O)[C@H]([C@@H](C)O)NC(=O)[C@H]([C@H](O)[C@@H](O)c5ccc(O)cc5)NC(=O)[C@@H]5C[C@@H](O)CN5C(=O)[C@H]([C@@H](C)O)NC4=O)cc3)cc2)cc1 [ANIDULAFUNGIN] ({pTerphenylCO(4''-OnC5H11)}-[Orn(4R-OH,5R-OH)]T[Hyp][hTyr(3S-OH,4S-OH)]T[Pro(3S-OH,4S-Me)]; lactam 1-C)
ED50 (Candida albicans [36]): 0.22 mg/kg | half-life [37]: 24 h

CC(=O)N[C@@H](CO)[C@@H](O)[C@H](O)[C@H](O)CS(=O)(=O)O
IC50 [38]: > 5000 µM | MIC (Candida albicans [16]): 1000 µg/mL (≈ 3480 µM)
